Experiments:
[1] = target: T1, PIN1-CD (catalytic PIN1 domain, devoid of the PIN1 WW domain) (Homo sapiens, UniProt Q13526); assay: Dissociation constant (Kd) with PIN1 catalytic domain; format: binding; conditions: peptide containing the catalytic PIN1 domain
T1 construct: PIN1 peptide containing the catalytic peptidyl-prolyl isomerase domain but devoid of the PIN1 WW domain
Text: (§1) In Table 1, the Ki data reported under the PIN1—CD heading corresponds to testing with PIN1 peptide containing the catalytic peptidyl-prolyl isomerase domain but devoid of the PIN1 WW domain. Similarly, the dissociation constant (Kd) data under PIN1-CD refers to testing with a peptide containing the catalytic PIN1 domain but devoid of the PIN1 WW domain.

[2] = target: T2, PIN1-CD (catalytic peptidyl-prolyl isomerase domain, devoid of the PIN1 WW domain) (Homo sapiens, UniProt Q13526); assay: Pin1 peptidyl-prolyl isomerase assay (protease-coupled, spectrophotometric); format: biochemical; conditions: catalytic PPIase domain without WW domain; 15° C., pH 7.5, 100 μM Suc-AEPF-pNA
T2 construct: PIN1 peptide containing the catalytic peptidyl-prolyl isomerase domain but devoid of the PIN1 WW domain
T2 sequence (Q13526 52-163 limits assumed): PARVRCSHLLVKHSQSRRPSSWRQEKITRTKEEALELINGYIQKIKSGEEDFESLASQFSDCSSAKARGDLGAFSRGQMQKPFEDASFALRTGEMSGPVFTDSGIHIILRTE
Text: PIN1 is a phosphorylation dependent peptidyl-prolyl isomerase. The PIN1 assay is a spectrophotometric assay based on the coupled chymotrypsin or subtilisin catalyzed, cis-trans conformation dependent cleavage of a para-nitroanaline containing peptide substrate. […] Cleavage of the isomerized peptide releases para-nitroanaline, which can be monitored by an increase in absorbance at 390 nm. The PIN1 peptide substrate, succinyl-[…]-proline-phenylalanine-paranitroaniline (Suc-AEPF-pNA) (Bachem), is kept in a predominantly cis conformation with an anhydrous TFE/LiCl solvent mixture.
Upon dilution into an aqueous assay mixture containing PIN1, the peptide substrate undergoes PIN1 catalyzed isomerization to the trans conformation. […] To minimize the spontaneous isomerization of the peptide substrate, reactions are performed at 15° C. A typical reaction contains 25 mM MOPS pH 7.5, 0.5 mM TCEP, 2% DMSO, 5 μl of a 25 mg/ml solution of subtilisin Carlsberg, 50 nM PIN1-PPiase, and 100 μM Suc-AEPF-pNA peptide substrate. Reactions are cooled to 15° C. and initiated with the addition of Suc-AEPF-pNA. The absorbance at 390 nm is monitored continuously until all substrate has been converted to the cleaved product. […] The rate constant k is linearly proportional to the concentration of active enzyme present in the assay mixture once the rate constant for the spontaneous isomerization is subtracted. […] Therefore, during inhibition experiments, the IC50, for non-tight binding inhibitors, is essentially the inhibition constant Ki.
as §1

T1 sequence (Q13526 52-163 limits assumed): as above

Row | Kd [1] [µM] | Ki [2] [µM] | Structure (SMILES)
1 | < 100 |  | NS(=O)(=O)OC[C@@H](Cc1ccccc1)NC(=O)c1ccc2ccccc2c1 [Example 72, Sulfamic acid 2-[(1-naphthalen-2-yl-methanoyl)-amino]-3-phenyl-propyl ester]
2 | < 1 |  | COc1ccc2cc(C(=O)N[C@@H](COP(=O)(O)O)Cc3ccccc3)ccc2c1 [Example 25-25, Phosphoric acid mono-(2-{[1-(6-methoxy-naphthalen-2-yl)-methanoyl]-amino}-3-phenyl-propyl)ester]
3 | < 1 |  | O=C(N[C@@H](COP(=O)(O)O)Cc1ccccc1)c1ccc2ccccc2c1O [Example 25-21]
4 |  | < 1 | O=C(N[C@@H](COP(=O)(O)O)Cc1cccc(F)c1)c1ccc2nc[nH]c2c1 [Example 61, Phosphoric acid mono-[(R)-2-[(1-3H-benzoimidazol-5-yl-methanoyl)-amino]-3-(3-fluoro-phenyl)-propyl]ester]
5 | < 1 |  | O=C(N[C@@H](COP(=O)(O)O)Cc1ccccc1)c1cc2ccccc2[s+]1[O-] (stereo in doubt) [25-2′, Phosphoric acid mono-(2-{[1-(1-oxo-benzo[b]thiophen-2-yl)-methanoyl]-amino}-3-phenyl-propyl)ester]
6 |  | < 10 | O=C(N[C@@H](COP(=O)(O)O)CC1CCCCC1)c1ccc2ccccc2c1 [Example 33, Phosphoric acid mono-{(R)-3-cyclohexyl-2-[(1-naphthalen-2-yl-methanoyl)-amino]-propyl}ester]
7 | < 1 |  | O=C(N[C@@H](COP(=O)(O)O)Cc1ccccc1)c1cc2ccccc2cc1O [Example 25-22, Phosphoric acid mono-(2-{[1-(3-hydroxy-naphthalen-2-yl)-methanoyl]-amino}-3-phenyl-propyl)ester]
8 | < 1 |  | O=C(N[C@@H](COP(=O)(O)O)Cc1ccccc1)c1sccc1Cl [Example 25-12]
9 | < 1 |  | Cc1nn(-c2ccccc2)nc1C(=O)N[C@@H](COP(=O)(O)O)Cc1ccccc1 [Example 25-7, Phosphoric acid mono-(2-{[1-(5-methyl-2-phenyl-2H-[1,2,3]triazol-4-yl)-methanoyl]-amino}-3-phenyl-propyl)ester]
10 |  | < 1 | CC(C)(C)C(=O)N[C@@H](COP(=O)(O)O)Cc1ccccc1 [Example 25-16, Phosphoric acid mono-[(R)-2-(2,2-dimethyl-propanoylamino)-3-phenyl-propyl]ester]
11 | < 10 |  | O=C(N[C@@H](COP(=O)(O)O)Cc1ccccc1)c1ccccc1O [Example 25-13, Phosphoric acid mono-(2-{[1-(2-hydroxy-phenyl)-methanoyl]-amino}-3-phenyl-propyl)ester]
12 | < 1 |  | COc1c(C(=O)N[C@@H](COP(=O)(O)O)Cc2ccccc2)csc1Cl [Example 25-6, Phosphoric acid mono-(2{[1-(5-chloro-4-methoxy-thiophen-3-yl)-methanoyl]-amino}-3-phenyl-propyl)ester]
13 |  | < 1 | O=C(N[C@@H](COP(=O)(O)O)Cc1ccccc1)c1cccc(Cl)c1 [Example 25-8, Phosphoric acid mono-(2-{[1-(3-chloro-phenyl)-methanoyl]-amino}-3-phenyl-propyl) ester]
14 |  | < 1 | O=C(N[C@@H](CCP(=O)(O)O)Cc1cccc(F)c1)c1cc2ccccc2s1 [Example 71, ([(R)-3-[(Benzo[b]thiophene-2-carbonyl)-amino]4-(3-fluoro-phenyl)-butyl]-phosphonic acid)]
15 |  | < 1 | O=C(N[C@H](Cc1cccc(F)c1)CP(=O)(O)O)c1cc2ccccc2s1 [Example 98, [2-[(Benzo[b]thiophene-2-carbonyl)-amino]-3-(3-fluoro-phenyl)-propyl]-phosphonic acid]
16 | < 1 |  | O=C(N[C@@H](COP(=O)(O)O)Cc1ccccc1)c1ccc2ccccc2c1Br [Example 25-24, Phosphoric acid mono-(2-{[1-(1-bromo-naphthalen-2-yl)-methanoyl]amino}-3-phenyl-propyl)ester]

Row | Kd [1] [µM] | Ki [2] [µM] | Structure (SMILES)
17 | < 1 |  | COc1cc(NC(=O)N[C@@H](COP(=O)(O)O)Cc2ccccc2)cc(OC)c1 [Example 23d, Phosphoric acid mono-{2-[3-(3,5dimethoxy-phenyl)-ureido]-3-phenyl-propyl}ester]
18 | < 10 |  | CN(C(=O)c1ccc2ccccc2c1)C(COP(=O)(O)O)Cc1ccccc1 (stereo not drawn) [Example 58, Phosphoric acid mono-{[methyl-(1-naphthalen-2-yl-methanoyl)-amino]-phenyl-propyl}ester]
19 | < 1 |  | O=C(N[C@@H](COP(=O)(O)O)Cc1ccccc1)c1cc2ccccc2o1 [Example 25-19, Phosphoric acid mono-{2-[(1-benzofuran-2-yl-methanoyl)-amino]-3-phenyl-propyl}ester]
20 | < 1 |  | O=C(N[C@@H](COP(=O)(O)O)Cc1ccccc1)c1cnc2ccccc2n1 [Example 25-11, Phosphoric acid mono-{3-phenyl-2-[(1-quinoxalin-2-yl-methanoyl)-amino]-propyl}ester]
21 |  | < 10 | CN(C)c1cccc2c(S(=O)(=O)N[C@@H](COP(=O)(O)O)Cc3cccc(F)c3)cccc12 [Example 42, Phosphoric acid mono-[(R)-2-(5-dimethylamino-naphthalene-1-sulfonylamino)-3-(3-fluoro-phenyl)-propyl]ester]
22 | < 1 |  | O=C(N[C@@H](COP(=O)(O)O)Cc1ccccc1)c1ccc(Cl)c(Cl)c1 [Example 25-5, Phosphoric acid mono-(2-{[1-(3,4-dichloro-phenyl)-methanoyl]amino}-3-phenyl-propyl)ester]
23 | < 1 |  | O=C(N[C@@H](COP(=O)(O)O)Cc1ccccc1)c1cccc2ccccc12 [Example 25-10, Phosphoric acid mono-{2-[(1-naphthalen-1-yl-methanoyl)-amino]-3-phenyl-propyl}ester]
24 |  | < 1 | O=C(OC(CCCc1ccccc1)CCCc1ccccc1)[C@@H]1CCCCN1C(=O)N[C@@H](COP(=O)(O)O)Cc1cccc(F)c1 [Example 79, (S)-1-[(R)-2-(3-Fluoro-phenyl)-1-phosphonooxymethyl-ethylcarbamoy]-piperidine-2-carboxylic acid 4-phenyl-1-(3-phenyl-propyl)-butyl ester]
25 |  | < 1 | CCN(CC)c1ccc2cc(C(=O)N[C@@H](COP(=O)(O)O)Cc3cccc(F)c3)c(=O)oc2c1 [Example 25-33, Phosphoric acid mono-[(R)-2-{[1-(diethylamino-oxo-2H-chromen-3-yl)-methanoyl]-amino}-3-(3-fluoro-phenyl)-propyl]ester]
26 | < 10 |  | O=C(N[C@@H](COP(=O)(O)O)Cc1ccccc1)c1ccco1 [Example 25-14, Phosphoric acid mono-{2-[(1-furan-2-yl-methanoyl)-amino]-3-phenyl-propyl}ester]
27 | < 1 |  | O=C(N[C@@H](COP(=O)(O)O)Cc1ccccc1)c1ccc2cc(O)ccc2c1 [Example 25-20, Phosphoric acid mono-(2-{[1-(6-hydroxy-naphthalen-2-yl)-methanoyl]-amino}-3-phenyl-propyl)ester]
28 | < 1 |  | O=C(N[C@@H](COP(=O)(O)O)Cc1ccccc1)c1ccc(Oc2cc(Cl)cc(Cl)c2)o1 [Example 25-4, Phosphoric acid mono-[2-({1-[5-(3,5-dichloro-phenoxy)-furan-2-yl]-methanoyl}-amino)-3-phenyl-propyl]ester]
29 | < 1 |  | O=C(N[C@@H](COP(=O)(O)O)Cc1ccccc1)c1cc2ccccc2[nH]1 [Example 25-18, Phosphoric acid mono-{2-[(1-1H-indol-2-yl-methanoyl)-amino]-3-phenyl-propyl}ester]
30 | < 1 |  | COc1cc(C)cc(NC(=O)N[C@@H](COP(=O)(O)O)Cc2ccccc2)c1 [Example 23c, Phosphoric acid mono-{2-[3-(3-methoxy-5-methyl-phenyl)-ureido]-3-phenyl-propyl}ester]
31 | < 1 |  | O=C(Nc1ccccc1Oc1ccccc1)N[C@@H](COP(=O)(O)O)Cc1ccccc1 [Example 23b, Phosphoric acid mono-{2-[3-(2-phenoxy-phenyl)-ureido]-3-phenyl-propyl}ester]

Row | Structure (SMILES) | Kd [1] [µM] | Ki [2] [µM]
32 | CC(=O)OCOP(=O)(OCOC(C)=O)OC[C@@H](Cc1cccc(F)c1)NC(=O)c1cc2ccccc2s1 [Example 85, Acetic acid acetoxymethoxy-[(R)-2-[(1-benzo[b]thiophen-2-yl-methanoyl)-amino]-3-(3-fluoro-phenyl)-propoxy]-phosphoryloxymethyl ester] |  | < 100
33 | CN(C)c1cccc2c(S(=O)(=O)N[C@@H](COP(=O)(Oc3ccccc3)Oc3ccccc3)Cc3cccc(F)c3)cccc12 [Example 86, Phosphoric acid (R)-2-(5-dimethylamino-naphthalene-1-sulfonylamino)-3-(3-fluoro-phenyl)-propyl ester diphenyl ester] |  | < 100

Reference: patent US20050250742A1 (Pfizer Inc., priority 2004, published 2005)
